Data from the NIST ThermoML archive (doi:10.1007/s10765-019-2573-6).

Conditions: Liquid, Vibrating wire viscometry

CCCCOC(=O)CCCCC(=O)OCCCC [dibutyl hexanedioate]
viscosity [mPa·s]
Conditions | 100 kPa | 1000 kPa | 5000 kPa | 10000 kPa | 15000 kPa | 20000 kPa | 30000 kPa | 40000 kPa
283.15 K | – | – | – | – | 8.961 | – | 10.62 | 11.95
283.16 K | 7.383 | 7.493 | – | – | – | 9.508 | – | –
283.17 K | – | – | 7.896 | 8.407 | – | – | – | –
293.14 K | – | 5.566 | – | – | 6.585 | – | – | 8.724
293.15 K | 5.499 | – | 5.84 | 6.196 | – | 6.982 | 7.808 | –
303.15 K | 4.237 | – | 4.49 | 4.759 | 5.029 | 5.323 | 5.933 | 6.592
303.16 K | – | 4.288 | – | – | – | – | – | –
313.15 K | 3.375 | 3.411 | 3.566 | 3.769 | 3.979 | 4.197 | 4.66 | 5.153
323.15 K | – | 2.774 | 2.9 | 3.061 | 3.224 | 3.393 | 3.754 | 4.146
323.16 K | 2.746 | – | – | – | – | – | – | –
333.14 K | – | – | – | 2.54 | – | – | – | –
333.15 K | 2.282 | 2.304 | 2.407 | – | – | 2.814 | 3.106 | 3.412
333.16 K | – | – | – | – | 2.675 | – | – | –
343.15 K | 1.93 | 1.95 | 2.035 | 2.144 | 2.257 | 2.37 | 2.612 | 2.859
353.15 K | 1.655 | 1.672 | 1.746 | 1.839 | 1.933 | 2.031 | 2.23 | 2.438
363.15 K | 1.437 | 1.452 | – | – | 1.675 | 1.757 | 1.93 | 2.108
363.16 K | – | – | – | 1.594 | – | – | – | –
363.17 K | – | – | 1.513 | – | – | – | – | –

CCOC(=O)CCCCC(=O)OCC [diethyl hexanedioate]
viscosity [mPa·s]
Conditions | 100 kPa | 1000 kPa | 5000 kPa | 10000 kPa | 15000 kPa | 20000 kPa | 30000 kPa | 40000 kPa
283.15 K | 4.541 | 4.59 | 4.792 | 5.062 | 5.332 | 5.622 | – | 6.887
283.16 K | – | – | – | – | – | – | 6.223 | –
293.15 K | 3.486 | 3.521 | 3.672 | 3.868 | 4.075 | 4.278 | 4.722 | 5.195
303.15 K | 2.766 | 2.792 | 2.912 | 3.063 | 3.207 | 3.361 | 3.696 | 4.042
313.15 K | 2.252 | – | 2.362 | 2.478 | 2.597 | 2.721 | 2.978 | 3.251
313.16 K | – | 2.272 | – | – | – | – | – | –
323.15 K | 1.87 | 1.886 | 1.961 | 2.054 | 2.151 | 2.248 | 2.461 | 2.68
333.15 K | 1.579 | 1.592 | 1.653 | 1.734 | 1.814 | 1.896 | 2.066 | 2.249
343.15 K | 1.354 | 1.367 | 1.419 | 1.487 | 1.555 | 1.624 | 1.765 | 1.917
353.14 K | – | 1.187 | – | – | – | – | – | –
353.15 K | 1.177 | – | 1.233 | 1.292 | 1.351 | 1.411 | 1.534 | 1.662
363.15 K | 1.032 | 1.041 | 1.081 | 1.133 | 1.183 | 1.236 | 1.343 | 1.453
